Activity calls are given as the source filed them. The rule behind the calls is not given here.
Columns and labels:
[1] = target: MAO-A (amine oxidase [flavin-containing] A) (Rattus norvegicus, UniProt P21396); experiment: MAO-A Eurofins-Cerep binding assay; parameters: incubation time 60 min, incubation temperature 37°C, ligand concentration 10 nM; conditions: rat cerebral cortex, probe [3H]Ro 41-1049 (10 nM), compound concentration 10 uM, read-out: % Inhibition of Control Specific Binding (Mean n=2)
[2] = target: Cyclin-dependent kinase 15 (Homo sapiens) (UniProt Q96Q40); conditions: Compound concentration 1000.0 nM
[3] = target: Alpha-1A adrenergic receptor (Homo sapiens) (UniProt P35348); experiment: Alpha1A (h) Eurofins-Cerep binding assay; parameters: ligand concentration 0.1 nM; conditions: filed as antagonist, Compound concentration 10.0 uM
[4] = target: Receptor-type tyrosine-protein kinase FLT3 (Homo sapiens) (UniProt P36888); conditions: Compound concentration 1000.0 nM
[5] = target: Transient receptor potential cation channel subfamily M member 6 (Homo sapiens) (UniProt Q9BX84); conditions: Compound concentration 1000.0 nM
[6] = target: Platelet-derived growth factor receptor beta (Homo sapiens) (UniProt P09619); conditions: Compound concentration 1000.0 nM
[7] = target: Serine/threonine-protein kinase PAK 4 (Homo sapiens) (UniProt O96013); conditions: Compound concentration 1000.0 nM
[8] = target: Serine/threonine-protein kinase STK11 (Homo sapiens) (UniProt Q15831); conditions: Compound concentration 1000.0 nM
[9] = test system: Mast/stem cell growth factor receptor Kit (Homo sapiens), P10721 [V559D]; conditions: Compound concentration 1000.0 nM
[10] = target: Serine/threonine-protein kinase Nek11 (Homo sapiens) (UniProt Q8NG66); conditions: Compound concentration 1000.0 nM
[11] = target: 5-hydroxytryptamine receptor 2A (Homo sapiens) (UniProt P28223); experiment: 5-HT2A (h) Eurofins-Cerep binding assay; parameters: ligand concentration 0.5 nM; conditions: filed as antagonist, Compound concentration 10.0 uM
[12] = target: 5-hydroxytryptamine receptor 1B (Homo sapiens) (UniProt P28222); conditions: Compound concentration 10.0 uM
[13] = target: Adenosine receptor A3 (Homo sapiens) (UniProt P0DMS8); experiment: A3 (h) Eurofins-Cerep binding assay; parameters: ligand concentration 0.15 nM; conditions: filed as agonist, Compound concentration 10.0 uM
[14] = target: Peripheral plasma membrane protein CASK (Homo sapiens) (UniProt O14936); conditions: Compound concentration 1000.0 nM
[15] = target: T1, Cystic fibrosis transmembrane conductance regulator (Homo sapiens, UniProt P13569); experiment: HBE-TECC (Human Bronchial Epithelial- Trans-Epithelial Current Clamp) assay
[16] = target: Bone morphogenetic protein receptor type-1B (Homo sapiens) (UniProt O00238); conditions: Compound concentration 1000.0 nM
[17] = target: Serine/threonine-protein kinase NLK (Homo sapiens) (UniProt Q9UBE8); conditions: Compound concentration 1000.0 nM
[18] = target: Serine/threonine-protein kinase MRCK beta (Homo sapiens) (UniProt Q9Y5S2); conditions: Compound concentration 1000.0 nM
[19] = target: Receptor tyrosine-protein kinase erbB-2 (Homo sapiens) (UniProt P04626); conditions: Compound concentration 1000.0 nM
[20] = target: Melatonin receptor type 1B (Homo sapiens) (UniProt P49286); experiment: MT2 (ML1B) (h) Eurofins-Cerep binding assay; parameters: ligand concentration 0.05 nM; conditions: filed as agonist, Compound concentration 10.0 uM
[21] = target: Calcium/calmodulin-dependent protein kinase type 1 (Homo sapiens) (UniProt Q14012); conditions: Compound concentration 1000.0 nM
[22] = target: Kappa-type opioid receptor (Homo sapiens) (UniProt P41145); conditions: Compound concentration 10.0 uM
[23] = target: T2, Muscarinic acetylcholine receptor M2 (Homo sapiens) (UniProt P08172); experiment: M2 (h) Eurofins-Cerep binding assay; parameters: ligand concentration 2 nM; conditions: filed as antagonist, Compound concentration 10.0 uM
T2 sequence (whole entry): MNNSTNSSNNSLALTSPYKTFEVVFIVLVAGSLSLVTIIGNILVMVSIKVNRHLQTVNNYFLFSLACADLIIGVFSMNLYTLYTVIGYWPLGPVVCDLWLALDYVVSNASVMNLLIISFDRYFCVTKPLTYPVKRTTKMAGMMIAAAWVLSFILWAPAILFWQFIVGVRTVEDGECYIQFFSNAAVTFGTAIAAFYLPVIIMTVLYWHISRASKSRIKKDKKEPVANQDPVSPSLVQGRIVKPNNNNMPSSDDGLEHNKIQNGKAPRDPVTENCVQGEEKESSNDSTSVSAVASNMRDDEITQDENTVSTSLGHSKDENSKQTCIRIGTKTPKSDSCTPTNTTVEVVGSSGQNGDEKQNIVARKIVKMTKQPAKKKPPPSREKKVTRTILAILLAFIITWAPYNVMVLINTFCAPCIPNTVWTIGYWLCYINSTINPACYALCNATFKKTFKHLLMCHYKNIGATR

[24] = target: Mast/stem cell growth factor receptor Kit (Homo sapiens) (UniProt P10721); conditions: Compound concentration 1000.0 nM
[25] = target: Death-associated protein kinase 2 (Homo sapiens) (UniProt Q9UIK4); conditions: Compound concentration 1000.0 nM
[26] = test system: Epidermal growth factor receptor (Homo sapiens), P00533 [T790M]; conditions: Compound concentration 1000.0 nM
[27] = target: Inhibitor of nuclear factor kappa-B kinase subunit epsilon (Homo sapiens) (UniProt Q14164); conditions: Compound concentration 1000.0 nM
[28] = target: Motilin receptor (Homo sapiens) (UniProt O43193); experiment: motilin (h Eurofins-Cerep binding assay; parameters: ligand concentration 0.05 nM; conditions: filed as agonist, Compound concentration 10.0 uM
[29] = target: Activin receptor type-2A (Homo sapiens) (UniProt P27037); conditions: Compound concentration 1000.0 nM
[30] = target: T1, Cystic fibrosis transmembrane conductance regulator; experiment: Plasma membrane-expressed enzyme acceptor protein (EA-MEM) assay
[31] = target: Receptor-interacting serine/threonine-protein kinase 2 (Homo sapiens) (UniProt O43353); conditions: Compound concentration 1000.0 nM
[32] = target: Sodium-dependent serotonin transporter (Homo sapiens) (UniProt P31645); experiment: 5-HT transporter (h) Eurofins-Cerep binding assay; parameters: ligand concentration 2 nM; conditions: filed as antagonist, Compound concentration 10.0 uM
[33] = target: Dual specificity mitogen-activated protein kinase kinase 2 (Homo sapiens) (UniProt P36507); conditions: Compound concentration 1000.0 nM
[34] = target: MAO-B (amine oxidase [flavin-containing] B) (Homo sapiens, UniProt P27338); experiment: MAO-B (h) recombinant enzyme Eurofins-Cerep enzyme and uptake assay; parameters: incubation time 60 min, incubation temperature 37°C, substrate/stimulus/tracer D-Luciferin derivative (4 µM); conditions: probe D-Luciferin derivative (4 µM), compound concentration 10 uM, read-out: % Inhibition of Control Values (Mean n=2)
[35] = test system: Receptor-type tyrosine-protein kinase FLT3 (Homo sapiens), P36888 [D835Y]; conditions: Compound concentration 1000.0 nM
[36] = test system: Receptor-type tyrosine-protein kinase FLT3 (Homo sapiens), P36888 [UNDEFINED MUTATION]; conditions: Compound concentration 1000.0 nM
[37] = target: Serine/threonine-protein kinase MRCK alpha (Homo sapiens) (UniProt Q5VT25); conditions: Compound concentration 1000.0 nM

T1 sequence (P13569 whole entry): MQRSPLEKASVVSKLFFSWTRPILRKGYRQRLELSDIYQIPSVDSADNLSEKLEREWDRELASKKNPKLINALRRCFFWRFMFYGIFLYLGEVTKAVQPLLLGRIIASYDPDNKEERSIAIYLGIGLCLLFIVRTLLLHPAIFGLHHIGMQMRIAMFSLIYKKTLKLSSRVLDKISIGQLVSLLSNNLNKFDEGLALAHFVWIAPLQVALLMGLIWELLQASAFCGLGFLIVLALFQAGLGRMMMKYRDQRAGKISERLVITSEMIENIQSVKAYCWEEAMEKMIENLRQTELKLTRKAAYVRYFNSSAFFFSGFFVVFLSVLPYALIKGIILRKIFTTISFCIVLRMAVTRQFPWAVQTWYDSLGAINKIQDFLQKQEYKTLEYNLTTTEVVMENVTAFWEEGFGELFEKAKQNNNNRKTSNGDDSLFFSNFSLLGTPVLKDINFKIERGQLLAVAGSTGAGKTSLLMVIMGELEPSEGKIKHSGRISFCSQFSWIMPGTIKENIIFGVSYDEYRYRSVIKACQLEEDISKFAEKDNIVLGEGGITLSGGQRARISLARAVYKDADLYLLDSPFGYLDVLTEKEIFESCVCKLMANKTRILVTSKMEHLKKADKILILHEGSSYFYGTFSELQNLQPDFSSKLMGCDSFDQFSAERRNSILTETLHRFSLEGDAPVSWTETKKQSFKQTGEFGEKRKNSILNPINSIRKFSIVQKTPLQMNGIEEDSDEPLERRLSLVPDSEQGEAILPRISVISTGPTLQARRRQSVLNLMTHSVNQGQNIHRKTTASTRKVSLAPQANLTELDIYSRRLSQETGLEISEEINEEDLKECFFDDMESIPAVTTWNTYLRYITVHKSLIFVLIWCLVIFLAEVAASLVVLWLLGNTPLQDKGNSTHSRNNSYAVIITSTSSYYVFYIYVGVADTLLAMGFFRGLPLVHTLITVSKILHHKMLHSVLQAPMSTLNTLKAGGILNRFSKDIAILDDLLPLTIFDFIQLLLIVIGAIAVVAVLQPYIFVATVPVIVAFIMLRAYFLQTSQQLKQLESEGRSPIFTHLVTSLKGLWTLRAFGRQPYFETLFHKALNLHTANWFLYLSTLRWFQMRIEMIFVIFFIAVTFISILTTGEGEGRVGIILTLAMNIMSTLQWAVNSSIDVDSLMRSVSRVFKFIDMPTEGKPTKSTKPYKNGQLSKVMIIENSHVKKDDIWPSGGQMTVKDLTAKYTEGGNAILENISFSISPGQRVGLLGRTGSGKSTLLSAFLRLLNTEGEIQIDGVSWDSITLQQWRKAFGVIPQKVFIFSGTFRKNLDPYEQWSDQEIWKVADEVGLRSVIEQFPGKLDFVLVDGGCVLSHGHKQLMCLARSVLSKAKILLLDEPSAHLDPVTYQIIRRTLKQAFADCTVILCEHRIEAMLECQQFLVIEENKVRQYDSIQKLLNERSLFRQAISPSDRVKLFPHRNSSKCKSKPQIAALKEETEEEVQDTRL
Sequence of Melatonin receptor type 1B (Homo sapiens) (P49286 whole entry): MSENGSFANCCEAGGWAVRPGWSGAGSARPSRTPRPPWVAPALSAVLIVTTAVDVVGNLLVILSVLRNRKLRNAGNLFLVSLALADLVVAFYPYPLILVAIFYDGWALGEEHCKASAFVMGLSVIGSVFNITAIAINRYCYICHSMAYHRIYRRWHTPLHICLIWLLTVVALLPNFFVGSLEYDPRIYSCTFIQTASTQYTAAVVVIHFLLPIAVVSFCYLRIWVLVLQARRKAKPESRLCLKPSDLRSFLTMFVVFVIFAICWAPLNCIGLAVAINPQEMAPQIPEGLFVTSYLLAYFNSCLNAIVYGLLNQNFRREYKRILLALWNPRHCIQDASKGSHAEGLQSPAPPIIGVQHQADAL
Sequence of Death-associated protein kinase 2 (Homo sapiens) (Q9UIK4 whole entry, looked up): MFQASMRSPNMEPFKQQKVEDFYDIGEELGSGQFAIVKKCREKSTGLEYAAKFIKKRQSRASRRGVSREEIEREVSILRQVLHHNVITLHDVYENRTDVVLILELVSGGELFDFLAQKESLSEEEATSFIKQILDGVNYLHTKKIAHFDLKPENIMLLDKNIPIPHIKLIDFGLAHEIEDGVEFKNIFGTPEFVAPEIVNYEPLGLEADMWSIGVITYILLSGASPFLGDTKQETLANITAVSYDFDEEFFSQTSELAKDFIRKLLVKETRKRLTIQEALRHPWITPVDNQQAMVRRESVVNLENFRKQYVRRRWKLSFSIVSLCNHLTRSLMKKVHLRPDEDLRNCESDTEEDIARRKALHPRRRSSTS
Sequence of Receptor tyrosine-protein kinase erbB-2 (Homo sapiens) (P04626 whole entry): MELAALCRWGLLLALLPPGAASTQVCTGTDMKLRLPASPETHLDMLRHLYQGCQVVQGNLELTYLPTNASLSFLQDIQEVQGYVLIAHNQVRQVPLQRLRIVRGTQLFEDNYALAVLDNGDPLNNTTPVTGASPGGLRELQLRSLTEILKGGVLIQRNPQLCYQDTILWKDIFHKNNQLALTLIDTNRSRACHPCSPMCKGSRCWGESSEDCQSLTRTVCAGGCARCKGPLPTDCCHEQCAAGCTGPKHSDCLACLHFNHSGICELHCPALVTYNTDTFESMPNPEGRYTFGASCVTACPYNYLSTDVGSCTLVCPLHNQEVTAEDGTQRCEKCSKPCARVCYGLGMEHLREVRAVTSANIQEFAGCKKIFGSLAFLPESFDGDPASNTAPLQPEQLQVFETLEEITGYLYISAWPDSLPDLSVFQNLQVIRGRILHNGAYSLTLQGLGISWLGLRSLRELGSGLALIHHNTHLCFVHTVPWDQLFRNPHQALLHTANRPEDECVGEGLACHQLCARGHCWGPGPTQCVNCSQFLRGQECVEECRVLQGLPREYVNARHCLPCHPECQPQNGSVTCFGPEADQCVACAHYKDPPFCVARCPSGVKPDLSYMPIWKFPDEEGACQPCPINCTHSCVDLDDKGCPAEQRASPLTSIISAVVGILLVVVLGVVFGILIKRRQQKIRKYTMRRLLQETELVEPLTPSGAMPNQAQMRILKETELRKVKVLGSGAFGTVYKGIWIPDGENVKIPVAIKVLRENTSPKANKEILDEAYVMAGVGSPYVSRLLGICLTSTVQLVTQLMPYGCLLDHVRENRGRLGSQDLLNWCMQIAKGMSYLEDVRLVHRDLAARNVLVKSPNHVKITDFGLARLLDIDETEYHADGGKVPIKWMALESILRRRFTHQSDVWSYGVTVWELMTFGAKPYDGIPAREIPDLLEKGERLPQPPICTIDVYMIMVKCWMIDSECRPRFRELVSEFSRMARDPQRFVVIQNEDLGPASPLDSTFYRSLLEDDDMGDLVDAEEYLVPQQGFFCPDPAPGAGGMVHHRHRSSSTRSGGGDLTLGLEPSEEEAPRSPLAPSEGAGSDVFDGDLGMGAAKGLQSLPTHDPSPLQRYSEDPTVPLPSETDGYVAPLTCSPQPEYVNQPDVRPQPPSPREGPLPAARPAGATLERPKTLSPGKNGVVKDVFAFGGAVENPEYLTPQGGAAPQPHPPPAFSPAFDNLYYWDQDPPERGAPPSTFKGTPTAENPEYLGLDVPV
Sequence of Mast/stem cell growth factor receptor Kit (Homo sapiens) (P10721 whole entry): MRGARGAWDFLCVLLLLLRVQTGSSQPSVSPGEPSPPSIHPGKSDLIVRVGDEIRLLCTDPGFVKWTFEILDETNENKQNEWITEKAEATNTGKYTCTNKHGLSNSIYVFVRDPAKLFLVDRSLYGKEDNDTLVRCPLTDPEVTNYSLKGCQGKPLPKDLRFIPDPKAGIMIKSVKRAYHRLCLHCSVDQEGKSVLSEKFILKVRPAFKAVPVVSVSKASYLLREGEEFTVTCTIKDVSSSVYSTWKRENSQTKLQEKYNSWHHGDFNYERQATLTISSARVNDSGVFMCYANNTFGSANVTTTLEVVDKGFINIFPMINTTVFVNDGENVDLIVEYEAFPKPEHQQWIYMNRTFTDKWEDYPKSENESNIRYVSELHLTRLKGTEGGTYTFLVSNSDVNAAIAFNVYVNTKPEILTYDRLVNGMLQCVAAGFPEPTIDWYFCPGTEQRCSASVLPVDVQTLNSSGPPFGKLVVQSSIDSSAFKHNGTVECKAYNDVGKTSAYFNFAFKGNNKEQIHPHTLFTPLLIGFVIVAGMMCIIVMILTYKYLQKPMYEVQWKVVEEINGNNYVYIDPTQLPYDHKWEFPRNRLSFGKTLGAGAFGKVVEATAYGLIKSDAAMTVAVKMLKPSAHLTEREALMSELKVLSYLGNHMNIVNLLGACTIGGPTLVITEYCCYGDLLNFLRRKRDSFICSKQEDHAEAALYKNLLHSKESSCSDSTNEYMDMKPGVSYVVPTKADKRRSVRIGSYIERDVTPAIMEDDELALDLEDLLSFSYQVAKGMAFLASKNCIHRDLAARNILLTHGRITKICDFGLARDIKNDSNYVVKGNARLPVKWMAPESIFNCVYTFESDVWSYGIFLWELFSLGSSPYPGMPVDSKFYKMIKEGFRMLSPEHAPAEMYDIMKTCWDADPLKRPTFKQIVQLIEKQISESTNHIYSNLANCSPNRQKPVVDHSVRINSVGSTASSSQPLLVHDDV
Sequence of Kappa-type opioid receptor (Homo sapiens) (P41145 whole entry): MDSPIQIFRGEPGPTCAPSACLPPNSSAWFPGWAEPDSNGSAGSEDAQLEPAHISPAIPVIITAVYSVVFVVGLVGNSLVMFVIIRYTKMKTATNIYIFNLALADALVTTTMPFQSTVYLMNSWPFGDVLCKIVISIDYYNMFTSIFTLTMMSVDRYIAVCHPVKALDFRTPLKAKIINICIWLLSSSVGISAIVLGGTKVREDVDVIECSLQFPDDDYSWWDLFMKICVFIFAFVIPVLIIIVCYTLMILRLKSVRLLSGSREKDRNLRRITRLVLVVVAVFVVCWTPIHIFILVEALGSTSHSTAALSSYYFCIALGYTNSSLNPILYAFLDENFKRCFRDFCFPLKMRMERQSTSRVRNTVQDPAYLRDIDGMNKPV
Sequence of Mast/stem cell growth factor receptor Kit (Homo sapiens), P10721 [V559D] (P10721 whole entry V559D): as the sequence (P10721 whole entry) above, with V559D counted along it

SMILES | inhibition at 60 min, 10 µM [1] | residual activity [2] | % Inhibition of Control Specific Binding (Mean n=2) [3] | residual activity [4] | residual activity [5] | residual activity [6] | residual activity [7] | residual activity [8] | residual activity [9] | residual activity [10] | % Inhibition of Control Specific Binding (Mean n=2) [11] | inhibition [12] | % Inhibition of Control Specific Binding (Mean n=2) [13] | residual activity [14] | EC50 [15] | residual activity [16] | residual activity [17] | residual activity [18] | residual activity [19] | % Inhibition of Control Specific Binding (Mean n=2) [20] | further results
COc1ccc2c(c1)O[C@@H](c1ccc(OC)c(OC)c1)C[C@H]2NC(=O)C1(c2ccc3c(c2)OC(F)(F)O3)CC1 [A-1596586] | -1.1% | 100% | 5.7% | 100% | 82% | 100% | 89% | 65% | 86% | 83% | -7.4% | -0.84% | 63.9% | 100% | 28 nM (active) | 71% | 100% | 100% | 75% | 41% | residual activity [21]: 100%; inhibition [22]: 34.1%; % Inhibition of Control Specific Binding (Mean n=2) [23]: -9.9%; residual activity [24]: 88%; residual activity [25]: 98%; residual activity [26]: 82%; residual activity [27]: 70%; % Inhibition of Control Specific Binding (Mean n=2) [28]: 10.7%; residual activity [29]: 90%; EC50 [30]: 35 nM (active); residual activity [31]: 94%; % Inhibition of Control Specific Binding (Mean n=2) [32]: 11.7%; residual activity [33]: 87%; inhibition at 60 min, 10 µM [34]: 11.9%; residual activity [35]: 100%; residual activity [36]: 76%; residual activity [37]: 90%
COc1ccc2c(c1)O[C@H](c1ccc(OC)c(OC)c1)C[C@@H]2NC(=O)C1(c2ccc3c(c2)OC(F)(F)O3)CC1 [A-1596584] | 6.4% | 100% | 27.3% | 100% | 84% | 100% | 100% | 100% | 100% | 88% | -3.7% | -1% | 67.7% | 85% | > 3000 nM (not active) | 100% | 100% | 100% | 100% | 38% | residual activity [21]: 100%; inhibition [22]: 27.4%; % Inhibition of Control Specific Binding (Mean n=2) [23]: -5.5%; residual activity [24]: 99%; residual activity [25]: 98%; residual activity [26]: 87%; residual activity [27]: 96%; % Inhibition of Control Specific Binding (Mean n=2) [28]: 26.4%; residual activity [29]: 97%; EC50 [30]: 3900 nM (not active); residual activity [31]: 100%; % Inhibition of Control Specific Binding (Mean n=2) [32]: 7%; residual activity [33]: 100%; inhibition at 60 min, 10 µM [34]: 16.7%; residual activity [35]: 100%; residual activity [36]: 87%; residual activity [37]: 100%
